Here are results for two compounds from patent US20170065667A1, “METHODS FOR SYNCHRONIZATION OF ESTROUS CYCLES AND OVULATION FOR FIXED TIME ARTIFICIAL INSEMINATION IN CATTLE” (Parnell Technologies Pty Ltd., priority 2014, published 2017).

Several values for one entry are separate records, joined by “and”; a condition that tells them apart may be missing. Equal values may be shown once. Read-outs that look alike come from different tables or passages of the source.

For one test, the system named is lactating Holstein cows. Put plainly: Experiment 1: CL regression / circulating P4 after one vs. two 2 mL i.m. cloprostenol sodium injections in Double-Ovsynch. In kind it is in vivo, cattle. Particulars: for CL regression, % of cows: quartiles 2, 3 and 4 combined; for circulating P4 concentrations at 56 hours after the first injection: day of final gonadorelin acetate injection, serum, in ng/mL. The protocol: An experiment was conducted to determine the effectiveness of the exogenous administration of hormones for synchronizing the estrous cycles of lactating dairy cattle and resulting pregnancy rates subsequent to FTAI. A total of 373 lactating Holstein cows (172 primiparous, 201 multiparous) were synchronized with a Double-Ovsynch program comprising a first or presynchronization Ovsynch phase followed by a second Ovsynch phase. All animals were synchronized using a GnRH composition (about 100 mcg of gonadorelin acetate per mL, GONAbreed®, Parnell Technologies Pty Ltd, Alexandria, Australia) and a PGF2α analog composition (about 250 mcg of cloprostenol sodium per mL, estroPLAN®, Parnell Technologies Pty Ltd, Alexandria, Australia). The first Ovsynch phase began at about 51 to about 57 days in milk where the cows received a first 1 mL intramuscular injection of a gonadorelin acetate composition. At about 58 to about 64 days in milk, the cows received a first 2 mL intramuscular injection of a cloprostenol sodium composition. At about 61 to about 67 days in milk, the cows received a second 1 mL intramuscular injection of a gonadorelin acetate composition concluding the first Ovsynch phase. The animals were then synchronized with a second Ovsynch phase comprising an Ovsynch-56 protocol beginning at about 68 to about 74 days in milk where the cows received a third 1 mL intramuscular injection of gonadorelin acetate composition. At about 75 to about 81 days in milk, the animals received a second 2 mL intramuscular injection of a cloprostenol sodium composition. At about 77 to about 83 days in milk (about 56 hours after the second injection of a cloprostenol sodium composition), the animals received a fourth 1 mL intramuscular injection of a gonadorelin acetate composition. And at about 78 to about 84 days in milk (about 16 hours after the fourth injection of the gonadorelin acetate composition), the animals receive AI, concluding the second Ovsynch phase. […] The experimental protocol is shown in the diagram of FIG. 2. Blood samples of the cows were taken at the time of the second injection of the cloprostenol sodium composition (at about 72 hours before FTAI) and at the time of the fourth injection of the gonadorelin acetate composition (at about 16 hours before FTAI). Blood samples were collected from the coccygeal vessels into vacuum tubes. Following collection, the blood samples were placed on ice and transported to a laboratory. After clotting (about 16 hours), samples were centrifuged at 3,000 rpm for 20 minutes and serum was isolated into vials, frozen and stored at −20 Celsius until assayed for P4 concentrations. Progesterone was determined directly from serum using a solid phase radioimmunoassay kit (Coat-A-Count, Siemens Healthcare Diagnostics, Los Angeles, Calif.) with no extraction. […] Statistical analyses were performed with SAS (SAS Institute, 2006). Variables with a binomial distribution, such as P/AI and percentage of animals with CL regression, were analyzed by logistic regression using the LOGISTIC procedure. One-tailed comparisons were utilized throughout the study for comparison of the effect of an additional cloprostenol sodium injection on CL regression and animals pregnant to the FTAI. Continuous variables were analyzed using ANOVA with logistic regression utilized to compare the relationship between circulating P4 and the binomial traits. Animals with ≦2.0 ng/mL P4 on day of PGF were removed from the analysis (n=29; 13 primiparous, 16 multiparous) due to lack of synchronization to the double Ovsynch protocol. Therefore, all analyses were done with a total of 344 lactating dairy cows (n=159 primiparous; n=185 multiparous). Statistical differences were considered significant for P≦0.05 and as a tendency for P≦0.15.

In another test the test system is lactating dairy cows. Particulars: cited from earlier work.
Where [1] appears, read: one injection, overall (all cows), P4 <0.5 ng/mL at 56 h.
Setting [2] is: two injections, Quartile 1, [P4] 2.0-5.4 at first injection.
[3] abbreviates: two injections, overall (all cows), P4 <0.5 ng/mL at 56 h.

With `O=C(O)CCC/C=C\CC1C(O)CC(O)C1/C=C/C(O)COc1cccc(Cl)c1` (centres unmarked) [cloprostenol sodium], the “percentage of cows with P4 below 0.2 ng/mL at final GnRH” value with lactating Holstein cows (one injection) was found to be 42.0%; in the test on lactating Holstein cows (two injections), 60.7%. Besides, the “percentage of cows with higher P4 (>0.5 ng/mL) at final GnRH” value is recorded as 17.0% in the test on lactating Holstein cows (one injection) and 2.4% in the test with lactating Holstein cows (two injections). Also, the “percentage of cows with lower P4 (0.1 to 0.19) at final GnRH” value is 34.7% with lactating Holstein cows (one injection) and 49.4% in the test on lactating Holstein cows (two injections). Also, the “CL regression, % (n/n)” value in the test on lactating Holstein cows (one injection, Quartile 1, [P4] 2.0-4.8 at first injection) was 66.7% and 66.7 (28/42) %; with lactating Holstein cows (one injection, Quartile 2, [P4] 4.9-6.7), 84.4 (38/45) %; with lactating Holstein cows (one injection, Quartile 3, [P4] 6.8-8.7) it was 95.5 (42/44) %; with lactating Holstein cows (one injection, Quartile 4, [P4] 8.8-12), 84.4 (38/45) %; with lactating Holstein cows (setting [2]) it was 95.1% and 95.1 (39/41) %; with lactating Holstein cows (two injections, Quartile 2, [P4] 5.5-7.0) it was 95.6 (43/45) %. Also, the “CL regression, % (n/n)” value in the test on lactating Holstein cows (two injections, Quartile 3, [P4] 7.1-8.6) is listed as 100 (43/43) %; in the test with lactating Holstein cows (two injections, Quartile 4, [P4] 8.7-12), 97.4 (38/39) %. Further, the “% of cows with complete CL regression” value with lactating Holstein cows (one injection, multiparous, P4 <0.5 ng/mL at 56 h) is 84.4% (81/96); with lactating Holstein cows (setting [1]), 83.0% (146/176); in the test on lactating Holstein cows (one injection, primiparous, P4 <0.5 ng/mL at 56 h after first injection) it was 81.2% (65/80); in the test with lactating Holstein cows (two injections (second 24 h after first), primiparous, P4 <0.5 ng/mL at 56 h), 97.5% (77/79); in the test on lactating Holstein cows (two injections, multiparous, P4 <0.5 ng/mL at 56 h), 96.7% (86/89); with lactating Holstein cows (setting [3]), 97.0% (163/168). Also, the “CL regression, % of cows” value with lactating Holstein cows (one injection) was determined as 88.1%; with lactating Holstein cows (two injections) it was 97.6%. The “circulating P4 concentrations at 56 hours after the first injection” value with lactating Holstein cows (single injection) was 0.4 ± 0.04; with lactating Holstein cows (two injections), 0.2 ± 0.05. In addition, in the test on lactating dairy cows (dose from 500 to 750 μg, 7 day protocol), the “effect on fertility of increasing the dose” value is “tended to increase fertility”.
Consider prostaglandin F2α [PGF], for which the “% of cows with complete CL regression” value worked out at 83% with lactating Holstein cows (setting [1]) and 97% with lactating Holstein cows (setting [3]). Besides, in the test on lactating Holstein cows (single PGF treatment, all cows), the “% of cows that did not completely regress the CL” value is recorded as 18%. The “% of cows with inadequate CL regression” value is given as 11.9% with lactating Holstein cows (single PGF treatment, greater circulating P4 at time of PGF) and 33.3% in the test with lactating Holstein cows (single PGF treatment, lower P4 (2.0 to 4.8 ng/mL) at time of PGF). For the same compound, the “CL regression, % (n/n)” value in the test on lactating Holstein cows (setting [2]) amounted to 95.1%. Further, the “CL regression, % of cows” value in the test with lactating Holstein cows (two injections) is on record as 97.6%. Besides, the “improvement in fertility in first service cows, two vs. one PGF2α” value with lactating dairy cows (7 day Ovsynch, not statistically significant) was 5.7%. Further, the “fertility in first service cows” value is 47.0% in the test on lactating dairy cows (one PGF2α treatment, 7 day Ovsynch) and 52.7% in the test on lactating dairy cows (two PGF2α treatments, 7 day Ovsynch).
